Experimental data taken from patent publication US12398154B2, “Azaquinazoline pan-KRas inhibitors” (Mirati Therapeutics, Inc., priority 2020, dated 2025).

How the values were obtained:
KRas G12D = KRas G12D (Homo sapiens, UniProt P01116, G12D); assay: biochemical;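 note: TR-FRET displacement binding assay on KRas, read after a one-hour incubation at room temperature, IC50 fitted from percent-of-control values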
Procedure: (§2) The ability of a compound to bind to KRas was measured using a TR-FRET displacement assay. […] After a 60-minute incubation at room temperature, the reaction was measured using a BMG LABTECH CLARIO star Plus via TR-FRET. […] The POC values were fit to a 4-parameter IC50 equation and the IC50 value reported.

[1] = system: phospho-ERK in PSN-1 (G12R) cells; assay: Inhibition of KRas-mediated phosphorylation of ERK (in-cell western); format: cell-based; settings: Homo sapiens, PSN1, 3 hours compound, phospho-ERK normalized to GAPDH
Outline: (§1)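 IC50 came from 4-parameter dose-response fits of phospho-ERK (Thr202/Tyr204)/GAPDH signal, expressed as % DMSO control. Compounds were applied for 3 h at 0.5% DMSO before fixation, methanol permeabilization and antibody imaging by in-cell western.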

[2] = system: phospho-ERK in HCT116 (G13D) cells; assay: as above; format: cell-based; settings: Homo sapiens, HCT-116, 3 hours compound, phospho-ERK normalized to GAPDH
Outline: as §1

[3] = system: phospho-ERK in NCI-H358 (G12C) cells; assay: as above; format: cell-based; settings: Homo sapiens, 3 hours compound, phospho-ERK normalized to GAPDH
Outline: as §1

[4] = system: phospho-ERK in NCI-H460 (Q61H) cells; assay: as above; format: cell-based; settings: Homo sapiens, NCI-H460, 3 h, 3 hours compound, phospho-ERK normalized to GAPDH
Outline: as §1

[5] = system: phospho-ERK in MKN1 (WTdep) cells; assay: as above; format: cell-based; settings: Homo sapiens, MKN-1, 3 hours compound, phospho-ERK normalized to GAPDH
Outline: as §1

[6] = system: phospho-ERK in NCI-H727 (G12V) cells; assay: as above; format: cell-based; settings: Homo sapiens, NCI-H727, 3 h, 3 hours compound, phospho-ERK normalized to GAPDH
Outline: as §1

[7] = system: phospho-ERK in A549 (G12S) cells; assay: as above; format: cell-based; settings: Homo sapiens, 3 hours compound, phospho-ERK normalized to GAPDH
Outline: as §1

[8] = system: phospho-ERK in AsPC-1 (G12D) cells; assay: as above; format: cell-based; settings: Homo sapiens, ASPC1, 3 h, 3 hours compound, phospho-ERK normalized to GAPDH
Outline: as §1

KRas G12V = KRas G12V (Homo sapiens, UniProt P01116, G12V); assay: biochemical;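 note: KRas binding measured by TR-FRET displacement at room temperature, IC50 fitted from percent of control values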
Procedure: as §2

KRas G12R = KRas G12R (Homo sapiens, UniProt P01116, G12R); assay: biochemical;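 note: TR-FRET displacement assay of compound binding to KRas, read after one hour at room temperature, potency from a four-parameter fit of percent-of-control values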
Sequence of KRas G12R (P01116 1-169 isoform P01116-2 G12R): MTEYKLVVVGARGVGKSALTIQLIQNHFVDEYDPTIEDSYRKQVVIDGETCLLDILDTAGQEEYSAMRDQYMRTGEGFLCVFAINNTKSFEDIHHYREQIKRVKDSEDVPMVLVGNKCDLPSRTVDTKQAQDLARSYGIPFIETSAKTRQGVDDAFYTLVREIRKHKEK
Procedure: as §2

Sequence of KRas G12D (P01116 1-169 isoform P01116-2 G12D): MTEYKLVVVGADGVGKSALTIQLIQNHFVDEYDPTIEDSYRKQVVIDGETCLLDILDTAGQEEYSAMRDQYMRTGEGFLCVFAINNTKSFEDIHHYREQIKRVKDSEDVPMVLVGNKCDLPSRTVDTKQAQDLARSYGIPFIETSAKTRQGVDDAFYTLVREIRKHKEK
Sequence of KRas G12V (P01116 1-169 isoform P01116-2 G12V): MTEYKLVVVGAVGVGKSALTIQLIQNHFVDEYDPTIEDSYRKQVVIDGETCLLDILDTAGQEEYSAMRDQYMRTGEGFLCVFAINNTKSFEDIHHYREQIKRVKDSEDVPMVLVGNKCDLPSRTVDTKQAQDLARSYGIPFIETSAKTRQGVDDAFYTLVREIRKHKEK

Row | SMILES | IC50 (KRas G12D) [µM] | IC50 (KRas G12V) [µM] | IC50 (KRas G12R) [µM] | IC50 [1] [nM] | IC50 [2] [nM] | IC50 [3] [nM] | IC50 [4] [nM] | IC50 [5] [nM] | IC50 [6] [nM] | IC50 [7] [nM] | IC50 [8] [nM]
1 | Cc1n[nH]c(C2CCCN(c3nc(OCC45CCCN4CCC5)nc4c(F)c(-c5cc(O)cc6ccc(F)c(F)c56)ncc34)C2)n1 (stereo not drawn) [Example 138, 5,6-difluoro-4-(8-fluoro-2-((hexahydro-1H-pyrrolizin-7a-yl)methoxy)-4-(3-(3-methyl-1H-1,2,4-triazol-5-yl)piperidin-1-yl)pyrido[4,3-d]pyrimidin-7-yl)naphthalen-2-ol] | 0.012 | 0.005 | 0.005 | ≥ 10000 | ≥ 10000 | ≥ 10000 | ≥ 10000 | ≥ 10000 | ≥ 10000 | ≥ 10000 | ≥ 10000
2 | CCc1c(F)ccc2cc(O)cc(-c3ncc4c(N5CCCC(c6ncn[nH]6)C5)nc(OC[C@@]56CCCN5C[C@H](F)C6)nc4c3F)c12 (stereo partly drawn) [Example 145, 4-(4-(3-(1H-1,2,4-triazol-5-yl)piperidin-1-yl)-8-fluoro-2-(((2R,7aS)-2-fluorohexahydro-1H-pyrrolizin-7a-yl)methoxy)pyrido[4,3-d]pyrimidin-7-yl)-5-ethyl-6-fluoronaphthalen-2-ol] | 0.009 | 0.006 | 0.003 | ≥ 10000 | ≥ 10000 | 379 | 847 | 258 | ≥ 10000 | ≥ 10000 | ≥ 10000
3 | CCc1c(F)ccc2cc(O)cc(-c3ncc4c(N5CCCC(C(N)=O)C5)nc(OC[C@@]56CCCN5C[C@H](F)C6)nc4c3F)c12 (stereo partly drawn) [Example 147] | 0.004 | 0.003 | 0.003 | ≥ 10000 | ≥ 10000 | 79 | 383 | 65 | ≥ 10000 | 1950 | ≥ 10000
4 | CCc1c(F)ccc2cc(O)cc(-c3ncc4c(Nc5ccon5)nc(OC[C@@]56CCCN5C[C@H](F)C6)nc4c3F)c12 [Example 152, 5-ethyl-6-fluoro-4-(8-fluoro-2-(((2R,7aS)-2-fluorohexahydro-1H-pyrrolizin-7a-yl)methoxy)-4-(isoxazol-3-ylamino)pyrido[4,3-d]pyrimidin-7-yl)naphthalen-2-ol] | 0.175 | 0.008 | 0.01 | ≥ 10000 | ≥ 10000 | ≥ 10000 | ≥ 10000 | 6290 | ≥ 10000 | ≥ 10000 | ≥ 10000
5 | CCc1c(F)ccc2cc(O)cc(-c3ncc4c(N5CCN(c6ncccc6C#N)CC5)nc(OC[C@@]56CCCN5C[C@H](F)C6)nc4c3F)c12 [Example 155] | 0.118 | 0.004 | 0.003 | ≥ 10000 | ≥ 10000 | 329 | 399 | 196 | 2670 | ≥ 10000 | 1720
6 | CCc1c(F)ccc2cc(O)cc(-c3ncc4c(NCc5cc[nH]n5)nc(OC[C@@]56CCCN5C[C@H](F)C6)nc4c3F)c12 [Example 159, 4-(4-(((1H-pyrazol-3-yl)methyl)amino)-8-fluoro-2-(((2R,7aS)-2-fluorohexahydro-1H-pyrrolizin-7a-yl)methoxy)pyrido[4,3-d]pyrimidin-7-yl)-5-ethyl-6-fluoronaphthalen-2-ol] | 0.039 | 0.003 | 0.005 | ≥ 10000 | 2110 | 139 | 1510 | 133 | 2000 | 4070 | ≥ 10000

Second part, led by results:

Row | IC50 (KRas G12D) [µM] | IC50 (KRas G12V) [µM] | IC50 (KRas G12R) [µM] | SMILES | IC50 [1] [nM] | IC50 [2] [nM] | IC50 [3] [nM] | IC50 [4] [nM] | IC50 [5] [nM] | IC50 [6] [nM] | IC50 [7] [nM] | IC50 [8] [nM]
7 | 0.008 | ≤ 0.002 | ≤ 0.002 | CCc1c(F)ccc2cc(O)cc(-c3ncc4c(NCc5ccc6[nH]cnc6c5)nc(OC[C@@]56CCCN5C[C@H](F)C6)nc4c3F)c12 [Example 139, 4-(4-(((1H-benzo[d]imidazol-5-yl)methyl)amino)-8-fluoro-2-(((2R,7aS)-2-fluorohexahydro-1H-pyrrolizin-7a-yl)methoxy)pyrido[4,3-d]pyrimidin-7-yl)-5-ethyl-6-fluoronaphthalen-2-ol] | ≥ 10000 | ≥ 10000 | 115 | 7510 | 307 | ≥ 10000 | ≥ 10000 | ≥ 10000
8 | 0.014 | ≤ 0.002 | ≤ 0.002 | CCc1c(F)ccc2cc(O)cc(-c3ncc4c(NCc5ncc6cc[nH]c6n5)nc(OC[C@@]56CCCN5C[C@H](F)C6)nc4c3F)c12 [Example 142, 4-(4-(((7H-pyrrolo[2,3-d]pyrimidin-2-yl)methyl)amino)-8-fluoro-2-(((2R,7aS)-2-fluorohexahydro-1H-pyrrolizin-7a-yl)methoxy)pyrido[4,3-d]pyrimidin-7-yl)-5-ethyl-6-fluoronaphthalen-2-ol] | ≥ 10000 | 6960 | 78 | 212 | 45 | ≥ 10000 | ≥ 10000 | 2870
9 | 0.004 | ≤ 0.002 | ≤ 0.002 | CCc1c(F)ccc2cc(O)cc(-c3ncc4c(NCc5ccc(=O)[nH]c5)nc(OC[C@@]56CCCN5C[C@H](F)C6)nc4c3F)c12 [Example 143] | ≥ 10000 | ≥ 10000 | 527 | ≥ 10000 | 300 | ≥ 10000 | ≥ 10000 | ≥ 10000
10 | 0.012 | ≤ 0.002 | ≤ 0.002 | CCc1c(F)ccc2cc(O)cc(-c3ncc4c(NCCc5c[nH]c6ncccc56)nc(OC[C@@]56CCCN5C[C@H](F)C6)nc4c3F)c12 [Example 157, 4-(4-((2-(1H-pyrrolo[2,3-b]pyridin-3-yl)ethyl)amino)-8-fluoro-2-(((2R,7aS)-2-fluorohexahydro-1H-pyrrolizin-7a-yl)methoxy)pyrido[4,3-d]pyrimidin-7-yl)-5-ethyl-6-fluoronaphthalen-2-ol] | ≥ 10000 | 893 | 31 | 585 | 31 | 4720 | 448 | 751
11 | 0.015 | ≤ 0.002 | ≤ 0.002 | CCc1c(F)ccc2cc(O)cc(-c3ncc4c(NCc5cn[nH]c5)nc(OC[C@@]56CCCN5C[C@H](F)C6)nc4c3F)c12 [Example 160, 4-(4-(((1H-pyrazol-4-yl)methyl)amino)-8-fluoro-2-(((2R,7aS)-2-fluorohexahydro-1H-pyrrolizin-7a-yl)methoxy)pyrido[4,3-d]pyrimidin-7-yl)-5-ethyl-6-fluoronaphthalen-2-ol] | ≥ 10000 | 1600 | 149 | 471 | 146 | 727 | 974 | 5520
12 | 0.028 | 0.003 | 0.003 | CCc1c(F)ccc2cc(O)cc(-c3ncc4c(NCc5c[nH]cn5)nc(OC[C@@]56CCCN5C[C@H](F)C6)nc4c3F)c12 [Example 164, 4-(4-(((1H-imidazol-4-yl)methyl)amino)-8-fluoro-2-(((2R,7aS)-2-fluorohexahydro-1H-pyrrolizin-7a-yl)methoxy)pyrido[4,3-d]pyrimidin-7-yl)-5-ethyl-6-fluoronaphthalen-2-ol] | ≥ 10000 | ≥ 10000 | 602 | 6820 | 207 | ≥ 10000 | ≥ 10000 | ≥ 10000
